The values that follow are results of earlier work, collected in article PMC9600270 (Cancers, 2022).

For series [1], the system named is RMS cells. To be noted: TmR-targeted vincristine-loaded liposomes. The source says:
We previously selected RMS-targeting peptides by in vitro and in vivo phage display and tested them for their potential to increase vincristine-loaded liposomes’ accumulation in RMS mouse xenografts. […] We hypothesized that a targeting peptide with a stronger binding to RMS might be needed to achieve increased accumulation in RMS tumors in vivo. Here, we selected from the literature peptides binding to receptors k ... || We previously tested the peptide TmR for its potential to increase vincristine-loaded liposomes’ accumulation in RMS mouse xenografts. […] Here, we aimed at selecting a peptide with stronger binding to RMS cells than TmR, and F3 peptide bound to the four RMS cell lines tested 3- to 5-fold more than TmR peptide. Importantly, F3 pe ...

In series [2] the test system is RMS mouse xenografts. The arrangement: method as in PMID 28447920. Conditions: TmR-targeted vincristine-loaded liposomes.

Where “and” joins values, the source holds several entries; their conditions need not be identical. Identical values can stand only once. Bridges are numbered along the chain shown (N, C = ends). Where no end group is shown, it is not given here.

As for “KRDRGGGCMGTINTRTRRC (disulfide 8-19 (inferred)) [TmR, Furin-targeting RMS peptide, modified version of RMS-P3]”, the “Increase of RMS binding of liposomes in vitro” value in series [1] was 5.4 fold and 5 fold. The “Tumor accumulation in vivo compared to non-targeted liposomes” value in series [2] is “did not further increase”.
